The source of these data is patent publication US8198285B2, “Pyrazine derivatives” (Astrazeneca AB, priority 2010, dated 2012).

Structures can show the parent of a compound that is named as a salt.

The subject of this test is Female Sprague Dawley rats. Put plainly: Increased bone formation in rats: femur histopathology. It counts as in vivo. The note with it: rat, oral. The procedure:
For in vitro osteogenesis, human adipose-derived stem cells (hADSC) (Invitrogen, UK; catalogue number R7788-115) were seeded into 12-well plates at a density of 5000 cells/cm^2 and were cultured in a basal media of phenol red-free Dulbecco's Modified Eagles Medium (DMEM; Sigma-Aldrich, UK; catalogue number D1145) supplemented with 5% fetal bovine serum (FBS, Gibco, UK; catalogue number 10270) and 2 mM GlutaMax® (Gibco; catalogue number 35050). […] In osteogenic positive control wells, basal media was replaced with a differentiation media; phenol red-free DMEM supplemented with 5% FBS, 2 mM GlutaMax®, 50 μg/ml L-ascorbic acid (Sigma-Aldrich; Catalogue no. A8960), 5 mM β-glycerophosphate (Calbiochem, UK; catalogue number 35675), and 10 nM dexamethasone (Sigma-Aldrich; catalogue number D4902). The cultures were incubated at 37° C. in 5% CO2 with media and compound was replaced every 3-4 days over a time-course of 24 days. The formation of mineralized bone nodules was assessed during the time-course using Alizarin Red S staining. At numerous times throughout the time-course, cells were fixed with 4% paraformaldehyde (Sigma-Aldrich; catalogue number P6148) for 20 min, followed by three washes with phosphate buffered saline (PBS), without calcium chloride and magnesium chloride, (Sigma-Aldrich; catalogue number D8537), before being stained with 40 mM Alizarin Red S (Sigma-Aldrich; catalogue number A5533) (pH4.2) for 20 min at room temperature. Plates were placed on a rocking platform (50 rpm) during staining After staining, cells were washed three times with PBS, and three times with water. Cells were imaged using a Leica M165FC stereomicroscope and associated Leica Application Suite imaging software (Leica Microsystems, UK). The amount of mineralisation was quantified through the extraction of the Alizarin Red S stain from bone nodules using a cetylpyridinium chloride extraction method, previously described (Gregory et al., Analytical Biochemistry, 2004, 329: 77-84; Hwang et al., Stem Cells and Development 17: 963-970, 2008). Briefly, Alizarin Red S stain was extracted from bone nodules through the addition of 1 ml, to each well, of a cetylpyridium chloride buffer consisting of 10% cetylpyridium chloride (Sigma-Aldrich; catalogue number C0732) in 10 mM Na3PO4 (Sigma-Aldrich; catalogue number 342483) (pH7.0) and incubation for 1 h at 37° C. Following incubation, 200 μl aliquots were transferred to 96-well format and the absorbance at 550 nm was determined using a microplate spectrophotometer (SpectraMax Plus, Molecular Devices, USA). Data were expressed as mean absorbance at 550 nm±Standard error of mean (SEM). Differences between groups were examined for statistical significance using one-way analysis of variance (ANOVA) followed by Tukey's multiple comparison post hoc test. P<0.05 was considered significant. […] Experiments were performed in triplicate. […] Data are shown as mean absorbance at 550 nm and analysed using one-way ANOVA followed by Tukey's multiple comparison post hoc test: n=9; ***, P<0.001. […] Female Sprague Dawley rats (Charles River CRL:CD rats, Deal, Margate, UK) aged between 12 and 16 weeks (230-340 g) were dosed with either compound or vehicle with a 5 mL/kg volume administered by oral gavage using straight steel (75 mm, 16 gauge) oral gavage feeding needles (Vet-Tech Solutions Ltd, Congleton, UK) between 7 and 10 am each day. Compound or vehicle was dosed at various doses (including 2.5, 5, 15 or 50 mg/kg/day freebase doses equivalent to 3, 6, 18 and 59 mg/kg of tri-hydrochloride salt) once a day for seven to fourteen days. In some studies a serum sample was taken prior to treatment to measure baseline serum bone biomarkers following overnight fasting. Blood was sampled from the tail vein and serum prepared by adding the blood to serum gel blood collection tubes (Microvette 500 Z-gel, catalogue number 20.1344, Sarstedt, Leicester, UK) and centrifuging the tubes for at 13000 rpm for 5 min at 4° C. […]

`COCCCNCCCc1ccc(-c2cnc(N)c(C(=O)Nc3cccnc3)n2)cc1` [Example 1, 3-Amino-6-(4-{3-[(3-methoxypropyl)amino]propyl}phenyl)-N-pyridin-3-ylpyrazine-2-carboxamide tri-hydrochloride]: where the note is “5 mg/kg, 7 or 14 days, vs vehicle”, the “Histopathology, morphology in the femur” value is recorded as “no differences in morphology in the femur”. Also, for the setting “15 mg/kg, 14 days”, the “Focal bone masses in the sub-chondral region” value was 2 out of 10; the “Histopathology, bone formation in femur” value is “evidence of bone formation in both the sub-chondral region and cortical region”. Where the note is “50 mg/kg, 7 days”, the “Histopathology, bone marrow” value is “histological evidence of bone marrow cell mobilization and differentiation”; the “Histopathology, cancellous bone compartment” value is recorded as “evidence of increased bone within the cancellous bone compartment”. Also, the “Histopathology, bone changes in femur” value (50 mg/kg, 14 days) is reported as “broader range of bone changes suggestive of bone formation”. Besides, for the setting “15 and 50 mg/kg, 7 days”, the “Histopathology, osteoblast hypertrophy” value is “evidence of osteoblast hypertrophy”; the “Histopathology, osteoid and bone in femur” value is “dose related changes of increased osteoid and bone in both the sub-chondral region and in the cortical bone in the shaft”.
